Reference: patent publication US4129591A, “Ureida-phenylenebis(substituted imino)multianionic substituted dinaphthalene sulfonic acids and salts” (American Cyanamid Company, priority 1976, dated 1978)
Where a name gives a salt, the structure may show the parent alone.

How the values were obtained:
[1] = tested on: late components of human complement (C3-C9); assay: Test, Code 035 (C3-C9 inhibitor), lysis of EAC 142; type: cell-based; settings: human C3-C9, EAC 142, in vitro
Source text: (§1) An active inhibitor protects C2 from C1 and C4; (ii) Test, Code 035 (C3-C9 inhibitor) -- This test determines the ability of the late components of human complement (C3-C9) to lyse EAC 142 in the presence of appropriate dilutions of the test compound. An active inhibitor protects EAC 142 from lysis by human C3-C9; (iii) Test, Code 036 (C-Shunt inhibitor) -- In this test human erythrocytes rendered fragile are lysed in autologous serum via the shunt pathway activated by cobra venom factor in the presence of appropriate dilutions of the test compound. Inhibition of the shunt pathway results in failure of lysis; (iv) Forssman Vasculitis Test -- Here, the well known complement dependent lesion, Forssman vasculitis, is produced in guinea pigs by intradermal injection of rabbit anti-Forssman antiserum. The lesion is measured in terms of diameter, edema and hemorrhage and the extent to which a combined index of these is inhibited by prior intraperitoneal injection of the test compound at 200 mg/kg is then reported, unless otherwise stated; (v) Forssman Shock Test -- Lethal shock is produced in guinea pigs by an i.v. injection of anti-Forssman antiserum and the harmonic mean death time of treated guinea pigs is compared with that of simultaneous controls; (vi) Complement Level Reduction Test -- In this test, the above dosed guinea pigs, or others, are bled for serum and the complement level is determined in undiluted serum by the capillary tube method of U.S. Pat. No. 3,876,376 and compared to undosed control guinea pigs; and (vii) Cap 50 Test -- Here, appropriate amounts of the test compound are added to a pool of guinea pig serum in vitro, after which the undiluted serum capillary tube assay referred to above is run. The concentration of compound inhibiting 50% is reported.

[2] = tested on: shunt pathway activated by cobra venom factor; assay: Test, Code 036 (C-Shunt inhibitor), lysis of human erythrocytes in autologous serum; type: cell-based
Source text: as §1

[3] = tested on: whole complement; assay: Complement level reduction in dosed guinea pigs (capillary tube assay); type: in vivo; settings: guinea pig, 200 mg/kg
[4] = molecular target: T1, activated human C1 (Homo sapiens, UniProt P09871); assay: Test, Code 026 (C1 inhibitor); type: biochemical; settings: human C1, in vitro
T1 construct: fluid-phase human C2 cleavage in presence of C4
T1 sequence (P09871 16-688): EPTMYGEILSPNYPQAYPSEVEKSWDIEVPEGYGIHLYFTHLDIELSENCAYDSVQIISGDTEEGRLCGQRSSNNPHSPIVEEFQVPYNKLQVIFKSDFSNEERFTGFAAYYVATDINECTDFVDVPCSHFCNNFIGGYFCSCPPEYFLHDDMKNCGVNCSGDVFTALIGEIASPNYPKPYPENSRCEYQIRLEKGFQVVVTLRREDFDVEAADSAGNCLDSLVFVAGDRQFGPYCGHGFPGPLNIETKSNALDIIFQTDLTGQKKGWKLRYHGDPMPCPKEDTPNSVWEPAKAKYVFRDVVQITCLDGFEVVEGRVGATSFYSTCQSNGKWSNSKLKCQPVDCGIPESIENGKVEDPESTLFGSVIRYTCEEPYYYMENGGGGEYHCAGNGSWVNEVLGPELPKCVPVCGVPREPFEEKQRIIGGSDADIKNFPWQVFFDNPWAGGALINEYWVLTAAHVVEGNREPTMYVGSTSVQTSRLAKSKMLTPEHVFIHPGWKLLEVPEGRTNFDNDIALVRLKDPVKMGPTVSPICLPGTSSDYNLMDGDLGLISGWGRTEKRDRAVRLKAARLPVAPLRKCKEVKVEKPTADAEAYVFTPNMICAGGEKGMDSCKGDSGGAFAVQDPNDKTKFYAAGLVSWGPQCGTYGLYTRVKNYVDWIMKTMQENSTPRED
T1 sequence (P00736 18-705 partner): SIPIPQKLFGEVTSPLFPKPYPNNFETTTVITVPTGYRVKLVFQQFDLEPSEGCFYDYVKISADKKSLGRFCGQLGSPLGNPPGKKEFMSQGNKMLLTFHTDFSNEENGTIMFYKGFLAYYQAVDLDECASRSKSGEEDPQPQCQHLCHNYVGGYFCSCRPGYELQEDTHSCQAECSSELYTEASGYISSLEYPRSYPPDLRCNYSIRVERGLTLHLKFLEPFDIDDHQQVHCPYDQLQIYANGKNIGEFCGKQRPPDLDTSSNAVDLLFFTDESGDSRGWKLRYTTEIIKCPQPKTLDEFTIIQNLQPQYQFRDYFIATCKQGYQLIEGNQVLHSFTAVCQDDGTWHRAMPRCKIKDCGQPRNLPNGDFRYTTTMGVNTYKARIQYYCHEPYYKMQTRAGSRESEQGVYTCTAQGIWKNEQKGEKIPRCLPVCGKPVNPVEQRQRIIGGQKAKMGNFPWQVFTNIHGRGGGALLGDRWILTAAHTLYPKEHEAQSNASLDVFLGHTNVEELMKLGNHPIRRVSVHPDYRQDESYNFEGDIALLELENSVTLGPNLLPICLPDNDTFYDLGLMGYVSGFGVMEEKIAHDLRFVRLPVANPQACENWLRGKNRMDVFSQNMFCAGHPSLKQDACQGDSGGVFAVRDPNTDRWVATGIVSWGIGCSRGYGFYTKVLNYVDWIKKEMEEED
T1 sequence (P02745 23-245 partner): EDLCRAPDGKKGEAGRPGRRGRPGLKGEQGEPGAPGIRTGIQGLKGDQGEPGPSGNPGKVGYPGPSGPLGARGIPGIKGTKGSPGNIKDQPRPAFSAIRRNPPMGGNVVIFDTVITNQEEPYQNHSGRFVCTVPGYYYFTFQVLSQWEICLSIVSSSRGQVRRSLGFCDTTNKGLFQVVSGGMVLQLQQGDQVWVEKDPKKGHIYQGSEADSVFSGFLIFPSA
T1 sequence (P02746 28-253 partner): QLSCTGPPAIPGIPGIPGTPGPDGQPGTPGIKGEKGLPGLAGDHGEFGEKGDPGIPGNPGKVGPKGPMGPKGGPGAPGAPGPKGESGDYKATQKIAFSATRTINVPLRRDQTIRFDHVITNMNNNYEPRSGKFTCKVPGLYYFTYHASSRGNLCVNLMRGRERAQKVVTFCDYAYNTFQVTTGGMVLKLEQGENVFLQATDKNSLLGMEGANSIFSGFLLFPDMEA
T1 sequence (P02747 29-245 partner): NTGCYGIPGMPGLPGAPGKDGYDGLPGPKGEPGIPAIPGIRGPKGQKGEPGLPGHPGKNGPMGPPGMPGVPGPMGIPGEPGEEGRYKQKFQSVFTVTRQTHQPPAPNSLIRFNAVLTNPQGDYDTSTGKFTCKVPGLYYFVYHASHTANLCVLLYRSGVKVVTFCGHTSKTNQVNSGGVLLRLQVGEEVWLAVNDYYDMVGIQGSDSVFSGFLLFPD
Source text: An active inhibitor protects C2 from C1 and C4; (ii) Test, Code 035 (C3-C9 inhibitor) -- This test determines the ability of the late components of human complement (C3-C9) to lyse EAC 142 in the presence of appropriate dilutions of the test compound. An active inhibitor protects EAC 142 from lysis by human C3-C9; (iii) Test, Code 036 (C-Shunt inhibitor) -- In this test human erythrocytes rendered fragile are lysed in autologous serum via the shunt pathway activated by cobra venom factor in the presence of appropriate dilutions of the test compound. Inhibition of the shunt pathway results in failure of lysis; (iv) Forssman Vasculitis Test -- Here, the well known complement dependent lesion, Forssman vasculitis, is produced in guinea pigs by intradermal injection of rabbit anti-Forssman antiserum. […]

[5] = tested on: complement system; settings: literature; cited from earlier work
[6] = tested on: hereditary angioneurotic edema; settings: New England Journal of Medicine, 286, 808-812 (1972); cited from earlier work

Row | Compound | Shunt Inhibition 036* Wells [2] | % change in complement level ([3]; i.p., time 30) | % change in complement level ([3]; i.p., time 60) | anticomplementary effect / complement inhibition [5] | use in treatment of hereditary angioneurotic edema [6] | other results
1 | O=C(Nc1cc(C(=O)Nc2cc(S(=O)(=O)O)cc3cc(S(=O)(=O)O)ccc23)cc(C(=O)Nc2cc(S(=O)(=O)O)cc3cc(S(=O)(=O)O)ccc23)c1)Nc1cc(C(=O)Nc2cc(S(=O)(=O)O)cc3cc(S(=O)(=O)O)ccc23)cc(C(=O)Nc2cc(S(=O)(=O)O)cc3cc(S(=O)(=O)O)ccc23)c1 [4,4',4",4'"-{Carbonylbis[imino-5,1,3-benzenetriylbis(carbonylimino)]}tetrakis[2,7-naphthalenedisulfonic acid] octasodium salt] | +3 Wells |  |  |  |  | C-Late 035* Wells [1]: +1 Wells; C-Late 035* Wells (class symbol N) [1]: N (N means inactive, O Wells)
2 | O=C(Nc1cc(C(=O)Nc2ccc(S(=O)(=O)O)c3cc(S(=O)(=O)O)cc(S(=O)(=O)O)c23)cc(C(=O)Nc2ccc(S(=O)(=O)O)c3cc(S(=O)(=O)O)cc(S(=O)(=O)O)c23)c1)Nc1cc(C(=O)Nc2ccc(S(=O)(=O)O)c3cc(S(=O)(=O)O)cc(S(=O)(=O)O)c23)cc(C(=O)Nc2ccc(S(=O)(=O)O)c3cc(S(=O)(=O)O)cc(S(=O)(=O)O)c23)c1 [8,8',8",8"'-[Carbonylbis[imino-5,1,3-benzenetriylbis(carbonylimino)]]tetrakis[1-3,5-naphthalenesulfonic acid] dodecasodium salt] |  | -98% | -98% |  |  | 
3 | O=C(Nc1cc(C(=O)Nc2cc(S(=O)(=O)O)cc3cc(S(=O)(=O)O)cc(S(=O)(=O)O)c23)cc(C(=O)Nc2cc(S(=O)(=O)O)cc3cc(S(=O)(=O)O)cc(S(=O)(=O)O)c23)c1)Nc1cc(C(=O)Nc2cc(S(=O)(=O)O)cc3cc(S(=O)(=O)O)cc(S(=O)(=O)O)c23)cc(C(=O)Nc2cc(S(=O)(=O)O)cc3cc(S(=O)(=O)O)cc(S(=O)(=O)O)c23)c1 [8,8',8",8'"-[Carbonylbis[imino-5,1,3-benzenetriylbis(carbonylimino)]]tetrakis[1,3,6-naphthalenetrisulfonic acid]dodecasodium salt] | +5 Wells | -88% | -85% |  |  | C1 026* Wells [4]: +9 Wells; C-Late 035* Wells [1]: +3 Wells; % change in complement level ([3]; i.p., time 120): -92%; % change in complement level ([3]; i.v., time 2): -98%; % change in complement level ([3]; i.v., time 30): -97%; % change in complement level ([3]; i.v., time 120): -89%
4 | Cc1ccc(C(=O)Nc2ccc(S(=O)(=O)O)c3cc(S(=O)(=O)O)cc(S(=O)(=O)O)c23)cc1NC(=O)c1cccc(NC(=O)Nc2cccc(C(=O)Nc3cc(C(=O)Nc4ccc(S(=O)(=O)O)c5cc(S(=O)(=O)O)cc(S(=O)(=O)O)c45)ccc3C)c2)c1 [Suramin] |  |  |  | competitive inhibitor of the complement system | used with success | 
5 | O=C(Nc1cc(C(=O)Nc2cc(S(=O)(=O)O)cc3cc(S(=O)(=O)O)cc(O)c23)cc(C(=O)Nc2cc(S(=O)(=O)O)cc3cc(S(=O)(=O)O)cc(O)c23)c1)Nc1cc(C(=O)Nc2cc(S(=O)(=O)O)cc3cc(S(=O)(=O)O)cc(O)c23)cc(C(=O)Nc2cc(S(=O)(=O)O)cc3cc(S(=O)(=O)O)cc(O)c23)c1 [4,4',4",4'"-[Carbonylbis[imino-5,1,3-benzenetriylbis(carbonylimino)]]tetrakis[5-hydroxy-2,7-naphthalenedisulfonic acid] octasodium salt] | +1 Wells | -69% | -92% |  |  | % change in complement level ([3]; i.p., time 120): -98%
6 | NC[C@H]1CC[C@H](C(=O)O)CC1 [trans-4-(aminomethyl)-cyclohexanecarboxylic acid] |  |  |  |  | used with success | 
7 | Nc1ccc2cc(S(=O)(=O)O)cc(O)c2c1N=Nc1ccc(NC(=O)Nc2ccc(N=Nc3c(N)ccc4cc(S(=O)(=O)O)cc(O)c34)c(S(=O)(=O)O)c2)cc1S(=O)(=O)O [chlorazol fast pink, 3,3-(carbonyldiimino)bis[6-(2-amino-8-hydroxy-6-sulfo-1-naphthylazo)benzenesulfonic acid], tetrasodium salt] |  |  |  | anticomplementary effect |  | 
8 | NCCCCCC(=O)O [6-aminohexanoic acid] |  |  |  |  | used with success | 
9 | heparin |  |  |  | anticomplementary effect |  | 
